Test results: PubChem BioAssay AID248 (DTP/NCI, 2004)
Several values for one entry are separate records, joined by “and”; a condition that tells them apart may be missing. Equal values may be shown once. Toxic doses and inconclusive results are not listed. Rule as the data show it: active = T/C of 150% or more; inactive = T/C below 125%.

System: L1210 leukemia ip in BDF1 mice, survival T/C
Assay: NCI In Vivo Anticancer Drug Screen. Data for tumor model L1210 Leukemia (intraperitoneal) in B6D2F1 (BDF1) mice
Conditions: endpoint: mean survival time, higher = longer survival
Summary of the method: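 Mice bearing the transplanted tumor received compound or vehicle. Survival of the treated group was divided by that of the vehicle-treated control group to give the ratio.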

[1] = dose: 100.0 mg/kg/injection, schedule: Q01DX001 (ip), vehicle: saline
[2] = dose: 200.0 mg/kg/injection, schedule: Q01DX001 (ip), vehicle: saline
[3] = dose: 400.0 mg/kg/injection, schedule: Q01DX001 (ip), vehicle: saline
[4] = dose: 100.0 mg/kg/injection, schedule: Q01DX009 (ip), vehicle: saline with Tween-80
[5] = dose: 100.0 mg/kg/injection, schedule: Q04DX002 (ip), vehicle: saline with Tween-80
[6] = dose: 200.0 mg/kg/injection, schedule: Q01DX009 (ip), vehicle: saline with Tween-80
[7] = dose: 200.0 mg/kg/injection, schedule: Q04DX002 (ip), vehicle: saline with Tween-80
[8] = dose: 400.0 mg/kg/injection, schedule: Q01DX009 (ip), vehicle: saline with Tween-80
[9] = dose: 400.0 mg/kg/injection, schedule: Q04DX002 (ip), vehicle: saline with Tween-80
[10] = dose: 100.0 mg/kg/injection, schedule: Q04DX003 (ip), vehicle: Klucel (hydroxypropylcellulose) (HPC)
[11] = dose: 200.0 mg/kg/injection, schedule: Q04DX003 (ip), vehicle: Klucel (hydroxypropylcellulose) (HPC)
[12] = dose: 400.0 mg/kg/injection, schedule: Q04DX003 (ip), vehicle: Klucel (hydroxypropylcellulose) (HPC)
[13] = dose: 100.0 mg/kg/injection, schedule: Q04DX003 (ip), vehicle: saline sonified
[14] = dose: 200.0 mg/kg/injection, schedule: Q04DX003 (ip), vehicle: saline sonified
[15] = dose: 400.0 mg/kg/injection, schedule: Q04DX003 (ip), vehicle: saline sonified

Measured: T/C

CCCC(=O)N1CC(C)OC(C)C1 (stereo unspecified)
inactive: [1] 100 % of control | dose: 100.0 mg/kg/injection, schedule: Q01DX009 (ip), vehicle: saline 98 % of control and 104 % of control | dose: 100.0 mg/kg/injection, schedule: Q04DX002 (ip), vehicle: saline 109 % of control | dose: 100.0 mg/kg/injection, schedule: Q04DX003 (ip), vehicle: saline 98 % of control | [2] 93 % of control | dose: 200.0 mg/kg/injection, schedule: Q01DX009 (ip), vehicle: saline 100 % of control and 104 % of control | dose: 200.0 mg/kg/injection, schedule: Q04DX002 (ip), vehicle: saline 115 % of control | dose: 200.0 mg/kg/injection, schedule: Q04DX003 (ip), vehicle: saline 104 % of control | [3] 104 % of control | dose: 400.0 mg/kg/injection, schedule: Q01DX009 (ip), vehicle: saline 96 % of control and 107 % of control | dose: 400.0 mg/kg/injection, schedule: Q04DX002 (ip), vehicle: saline 102 % of control | dose: 400.0 mg/kg/injection, schedule: Q04DX003 (ip), vehicle: saline 100 % of control

COC1N(c2ccccc2)CCN1c1ccccc1
inactive: dose: 100.0 mg/kg/injection, schedule: Q04DX002 (ip), vehicle: gum acacia 109 % of control | dose: 200.0 mg/kg/injection, schedule: Q04DX002 (ip), vehicle: gum acacia 106 % of control | dose: 400.0 mg/kg/injection, schedule: Q04DX002 (ip), vehicle: gum acacia 106 % of control

O=C(NC(=S)Nc1ccc(Br)cc1)c1ccc(Cl)cc1Cl
inactive: dose: 100.0 mg/kg/injection, schedule: Q01DX001 (ip), vehicle: saline with Tween-80 92 % of control | [4] 97 % of control and 102 % of control | [5] 95 % of control and 90 % of control | dose: 100.0 mg/kg/injection, schedule: Q04DX003 (ip), vehicle: saline with Tween-80 95 % of control | dose: 200.0 mg/kg/injection, schedule: Q01DX001 (ip), vehicle: saline with Tween-80 90 % of control | [6] 97 % of control and 88 % of control | [7] 93 % of control and 101 % of control | dose: 200.0 mg/kg/injection, schedule: Q04DX003 (ip), vehicle: saline with Tween-80 98 % of control | dose: 400.0 mg/kg/injection, schedule: Q01DX001 (ip), vehicle: saline with Tween-80 97 % of control | [8] 97 % of control and 90 % of control | [9] 90 % of control and 92 % of control | dose: 400.0 mg/kg/injection, schedule: Q04DX003 (ip), vehicle: saline with Tween-80 93 % of control

COC(=O)C(CCc1cc(OC)c(OC)c(OC)c1)C(C(=O)OC)C(=O)OC (stereo unspecified)
inactive: [10] 87 % of control | [11] 94 % of control | [12] 89 % of control

CCCCCCC(=O)C1OC1CCCCCCCCC(=O)O (stereo unspecified)
inactive: dose: 100.0 mg/kg/injection, schedule: Q04DX002 (ip), vehicle: other 112 % of control | dose: 400.0 mg/kg/injection, schedule: Q04DX002 (ip), vehicle: other 94 % of control

COc1ccc(-c2oc3cc(OC)ccc3c(=O)c2O)cc1
inactive: dose: 50.0 mg/kg/injection, schedule: Q01DX001 (ip), vehicle: saline 106 % of control | [1] 98 % of control | [2] 104 % of control | [3] 98 % of control

CCCCOB(/C=C/Sc1ccccc1)OCCCC
inactive: dose: 100.0 mg/kg/injection, schedule: Q01DX009 (ip), vehicle: saline sonified 89 % of control | [13] 101 % of control | dose: 200.0 mg/kg/injection, schedule: Q01DX009 (ip), vehicle: saline sonified 87 % of control | [14] 103 % of control | dose: 400.0 mg/kg/injection, schedule: Q01DX009 (ip), vehicle: saline sonified 100 % of control | [15] 95 % of control

O=[N+]([O-])c1cc(Cl)ccc1S(=O)(=O)O
inactive: [10] 101 % of control | [11] 93 % of control | [12] 98 % of control

COc1cc2cc(C)c(I)cc2cc1OC
inactive: dose: 75.0 mg/kg/injection, schedule: Q04DX003 (ip), vehicle: Klucel (hydroxypropylcellulose) (HPC) 97 % of control | dose: 150.0 mg/kg/injection, schedule: Q04DX003 (ip), vehicle: Klucel (hydroxypropylcellulose) (HPC) 97 % of control | dose: 300.0 mg/kg/injection, schedule: Q04DX003 (ip), vehicle: Klucel (hydroxypropylcellulose) (HPC) 103 % of control

CN=C([Se])NC
inactive: dose: 3.13 mg/kg/injection, schedule: Q01DX009 (ip), vehicle: saline with Tween-80 106 % of control | dose: 3.13 mg/kg/injection, schedule: Q04DX002 (ip), vehicle: saline with Tween-80 98 % of control | dose: 6.25 mg/kg/injection, schedule: Q01DX009 (ip), vehicle: saline with Tween-80 103 % of control | dose: 6.25 mg/kg/injection, schedule: Q04DX002 (ip), vehicle: saline with Tween-80 95 % of control | dose: 12.5 mg/kg/injection, schedule: Q01DX009 (ip), vehicle: saline with Tween-80 97 % of control | dose: 12.5 mg/kg/injection, schedule: Q04DX002 (ip), vehicle: saline with Tween-80 87 % of control

N=C(N)SCc1ccccc1Cl
inactive: dose: 3.13 mg/kg/injection, schedule: Q01DX009 (ip), vehicle: saline 96 % of control | dose: 3.13 mg/kg/injection, schedule: Q04DX002 (ip), vehicle: saline 102 % of control | dose: 6.25 mg/kg/injection, schedule: Q01DX009 (ip), vehicle: saline 98 % of control | dose: 6.25 mg/kg/injection, schedule: Q04DX002 (ip), vehicle: saline 102 % of control | dose: 12.5 mg/kg/injection, schedule: Q01DX009 (ip), vehicle: saline 96 % of control | dose: 12.5 mg/kg/injection, schedule: Q04DX002 (ip), vehicle: saline 91 % of control | dose: 25.0 mg/kg/injection, schedule: Q01DX009 (ip), vehicle: saline 96 % of control | dose: 25.0 mg/kg/injection, schedule: Q04DX002 (ip), vehicle: saline 97 % of control and 98 % of control | dose: 50.0 mg/kg/injection, schedule: Q04DX002 (ip), vehicle: saline 94 % of control

CC(=O)OC1CCCC1OC(=O)c1ccc([N+](=O)[O-])cc1 (stereo unspecified)
inactive: dose: 100.0 mg/kg/injection, schedule: Q04DX003 (ip), vehicle: other 106 % of control | dose: 200.0 mg/kg/injection, schedule: Q04DX003 (ip), vehicle: other 96 % of control | dose: 400.0 mg/kg/injection, schedule: Q04DX003 (ip), vehicle: other 95 % of control

COc1cc(C)cccc1=O
inactive: dose: 50.0 mg/kg/injection, schedule: Q01DX001 (ip), vehicle: carboxymethylcellulose (CMC) 107 % of control | dose: 100.0 mg/kg/injection, schedule: Q01DX001 (ip), vehicle: carboxymethylcellulose (CMC) 107 % of control | dose: 200.0 mg/kg/injection, schedule: Q01DX001 (ip), vehicle: carboxymethylcellulose (CMC) 96 % of control | dose: 400.0 mg/kg/injection, schedule: Q01DX001 (ip), vehicle: carboxymethylcellulose (CMC) 98 % of control

CC1(C)C2(C(N)=O)C(=O)NC(=O)C12C(=O)O (stereo unspecified)
inactive: [7] 92 % of control

Cc1ccc(Cl)cc1NC(=O)Nc1cc(C(C)C)ccc1C
inactive: [4] 93 % of control and 100 % of control | [5] 100 % of control and 90 % of control | [6] 93 % of control and 91 % of control | [7] 93 % of control and 94 % of control | [8] 86 % of control | [9] 96 % of control and 101 % of control

O=S(=O)(/C=C\c1ccccc1)CBr
inactive: dose: 100.0 mg/kg/injection, schedule: Q04DX002 (ip), vehicle: Klucel (hydroxypropylcellulose) (HPC) 100 % of control | dose: 200.0 mg/kg/injection, schedule: Q04DX002 (ip), vehicle: Klucel (hydroxypropylcellulose) (HPC) 97 % of control | dose: 400.0 mg/kg/injection, schedule: Q04DX002 (ip), vehicle: Klucel (hydroxypropylcellulose) (HPC) 106 % of control

Nc1ccc(N=Nc2ccc(O)cc2)c(N)n1
inactive: [1] 92 % of control | [2] 107 % of control

CC1OC1C(=O)Sc1ccccc1 (stereo unspecified)
inactive: dose: 25.0 mg/kg/injection, schedule: Q04DX003 (ip), vehicle: Klucel (hydroxypropylcellulose) (HPC) 100 % of control | dose: 50.0 mg/kg/injection, schedule: Q04DX003 (ip), vehicle: Klucel (hydroxypropylcellulose) (HPC) 103 % of control | [10] 93 % of control and 86 % of control

CCCCC(CC)CSCC(CC)CCCC (stereo unspecified)
inactive: [13] 97 % of control | [14] 93 % of control | [15] 97 % of control

O=C1C(Cl)=C(Cl)C(=O)N1CCCCCCN1C(=O)C(Cl)=C(Cl)C1=O
inactive: [10] 92 % of control | [11] 87 % of control | [12] 92 % of control
